For this series, the system named is corneal endothelial cells. In words: Post-thaw quality of pig corneal endothelium after ultra-fast cooling, with or without DMSO in DMEM. Type of series: cell-based. The conditions noted are these: pig corneal pieces cooled to -196 degrees C by liquid nitrogen blade jet, thawed under 37 degrees C water jet. The source says: Small samples excised from pig corneas were cooled from room temperature (ambient) to −196 degrees C. using an ultra-fast cooling system of the present invention that contains a single liquid nitrogen blade jet and two gas nitrogen blade jets. Pig corneas were processed and cut into approx. 0.5 cm×0.5 cm×0.5 cm pieces, and each piece maintains a full layer of endothelium, i.e., a single layer of corneal endothelial cells of approximately 10 microns in size, on one surface. The tissues are first placed in standard holding media, Dulbecco's Modified Eagle Media (DMEM), at 4 degrees C. A sample holder was made with a holding cavity of 0.5 cm in depth and with a 20 microns thick sheet of stainless steel as its cover sheet. […] The corneal endothelium of each tissue faced to the cover sheet and directly contacted its inner surface, to achieve maximum cooling rate possibly provided by the liquid nitrogen jet for the endothelium and prevent exposure of the cells to liquid nitrogen flows. […] The post-thaw quality of the corneal endothelia was evaluated by quantification of endothelial cell number based on differential interference contrast light microscopy. The cell health was assessed by using cell circularity as a surrogate marker using differential interference contrast light microscopy. […]

On to `C[S+](C)[O-]` [DMSO, dimethyl sulfoxide], for which the “post-thaw endothelial cell viability (cell count vs fresh tissue, FIG. 19D)” value is “comparable to readings of the fresh corneas” (10% DMSO in DMEM) and “impacted the cell viability due to toxicity” (20% DMSO in DMEM).
